Test results as given in DBAASP.
Converted amounts (≈) assume the structure as drawn. “And” between values parts separate entries of the source, which are not always exact repeats. Equal values may be shown once.

Columns and labels:
Assay in all cases: ≥ marks a high value that may be exact or a test limit, other limits are often not marked, values filed in µg/mL are converted to µM
Candida glabrata = system: Candida glabrata
[1] = system: Candida albicans IHEM 8060
Streptococcus uberis = system: Streptococcus uberis
Escherichia coli UB1005 = system: Escherichia coli UB1005
[2] = system: Pseudomonas aeruginosa PAO1
Bacillus cereus C737 = system: Bacillus cereus C737
[3] = system: Staphylococcus epidermidis
Staphylococcus aureus = system: Staphylococcus aureus
Escherichia coli = system: Escherichia coli
Listeria innocua = system: Listeria innocua
Pasteurella multocida = system: Pasteurella multocida
Leuconostoc lactis = system: Leuconostoc lactis
Bacillus cereus = system: Bacillus cereus
Micrococcus luteus = system: Micrococcus luteus
[4] = system: Bacillus subtilis IAM 1026
[5] = system: Aeromonas salmonicida NCIMB 1102
[6] = system: Photobacterium damselae subsp. piscicida Sp 9587
[7] = system: Shewanella putrefaciens IAM 1509
[8] = system: Vibrio anguillarum NCIMB 829
[9] = system: Vibrio parahaemolyticus Vp+1
[10] = system: Staphylococcus aureus IAM 1011
Salmonella typhimurium = system: Salmonella typhimurium
[11] = system: Escherichia coli JCM 1649
[12] = system: Staphylococcus aureus USA 100
Acinetobacter baumannii = system: Acinetobacter baumannii
[13] = system: Candida parapsilosis ATCC 22019
Aspergillus flavus = system: Aspergillus flavus
[14] = system: Pseudomonas aeruginosa ATCC 27853
[15] = system: Staphylococcus aureus JC114
Escherichia coli ML-35p = system: Escherichia coli ML-35p
[16] = system: Enterococcus faecalis ATCC 29212
[17] = system: Staphylococcus aureus ATCC 43300
[18] = system: Acinetobacter baumannii ATCC 19606
Klebsiella pneumoniae = system: Klebsiella pneumoniae
Saccharomyces cerevisiae = system: Saccharomyces cerevisiae
[19] = system: Pseudomonas aeruginosa JC115
[20] = system: Candida albicans ATCC 90028
Listeria ivanovii = system: Listeria ivanovii
Escherichia coli JC113 = system: Escherichia coli JC113
Escherichia coli D21 = system: Escherichia coli D21
[21] = system: Staphylococcus aureus ATCC BAA-44
[22] = system: Klebsiella pneumoniae ATCC 700603
Bacillus megaterium = system: Bacillus megaterium
Bacillus subtilis JC443 = system: Bacillus subtilis JC443
[23] = system: Pseudomonas aeruginosa ATCC 9027
[24] = system: Escherichia coli ATCC 35218
[25] = system: Streptococcus pyogenes ATCC 19615
[26] = system: Staphylococcus aureus USA 300
[27] = system: Klebsiella pneumoniae PTCC 1388
[28] = system: Escherichia coli HP101BA 7601c
[29] = system: Streptococcus dysgalactiae PTCC 1074
[30] = system: Staphylococcus aureus PTCC 1431
[31] = system: Streptococcus agalactiae PTCC 1365

In the case of CC[C@H](C)[C@@H]1NC(=O)[C@@H](N)CSSC[C@@H]2NC(=O)[C@@H]3CSSC[C@@H](C(=O)N[C@@H](CCCN=C(N)N)C(=O)O)NC(=O)[C@H](Cc4ccc(O)cc4)NC(=O)CNC(=O)[C@H](C)NC(=O)[C@H](C(C)C)NC(=O)[C@H](Cc4c[nH]c5ccccc45)NC(=O)CNC(=O)[C@@H]4CCCN4C(=O)[C@H](CCC(=O)O)NC(=O)[C@H](CCCCN)NC(=O)[C@H](Cc4cnc[nH]4)NC(=O)[C@H](CSSC[C@H](NC(=O)CNC(=O)[C@H](CC(N)=O)NC(=O)[C@H](CCCN=C(N)N)NC(=O)[C@H](CC(N)=O)NC(=O)[C@H](C)NC1=O)C(=O)N[C@@H](CCC(N)=O)C(=O)N1CCC[C@H]1C(=O)N[C@@H](CC(=O)O)C(=O)NCC(=O)N[C@@H](CO)C(=O)N[C@@H](CCC(N)=O)C(=O)NCC(=O)N[C@@H](CC(N)=O)C(=O)N3)NC(=O)[C@H](Cc1ccc(O)cc1)NC(=O)CNC(=O)[C@H](CO)NC2=O [CIANRNGCQPDGSQGNCCSGYCHKEPGWVAGYCR], the MIC (Candida glabrata) is reported as 17.6 µM (≈ 63.9 µg/mL) and the MIC [1] is reported as 17.6 µM (≈ 63.9 µg/mL).

In the case of CC[C@H](C)[C@H](NC(=O)[C@H](CC(=O)O)NC(=O)[C@H](Cc1ccccc1)NC(=O)[C@H](CC(C)C)NC(=O)CN)C(=O)N[C@H](C(=O)N[C@@H](CCCCN)C(=O)N[C@@H](CCCCN)C(=O)N[C@H](C(=O)N[C@H](C(=O)NCC(=O)N[C@@H](C)C(=O)N[C@@H](CC(C)C)C(=O)NCC(=O)N[C@@H](CO)C(=O)N[C@@H](CC(C)C)C(N)=O)C(C)C)C(C)C)C(C)C [GLFDIVKKVVGALGSL], the MIC (Streptococcus uberis) is reported as ≥ 61.9 µM, the MIC (Escherichia coli UB1005) is reported as ≥ 39.6 µM and the MIC [2] is reported as > 79.2 µM. The MIC (Bacillus cereus C737) was ≥ 79.2 µM, the MIC [3] was 15.5 µM (≈ 25 µg/mL) and the MIC (Staphylococcus aureus) was 15.5 µM (≈ 25 µg/mL). The MIC (Escherichia coli) was > 61.9 µM, the MIC (Listeria innocua) was 7.43 µM (≈ 12 µg/mL) and the MIC (Pasteurella multocida) was ≥ 61.9 µM. The MIC (Leuconostoc lactis) was 7.43 µM (≈ 12 µg/mL), the MIC (Bacillus cereus) was ≥ 61.9 µM and the MIC (Micrococcus luteus) was 15.5 µM (≈ 25 µg/mL).

In the case of CC[C@H](C)[C@H](NC(=O)[C@H](C)NC(=O)CNC(=O)[C@@H](NC(=O)[C@@H](NC(=O)[C@H](CCCCN)NC(=O)[C@H](CCCCN)NC(=O)[C@@H](NC(=O)[C@@H](NC(=O)[C@H](CC(=O)O)NC(=O)[C@H](Cc1ccccc1)NC(=O)[C@H](CC(C)C)NC(=O)CN)[C@@H](C)CC)C(C)C)C(C)C)C(C)C)C(=O)NCC(=O)N[C@@H](CO)C(=O)N[C@@H](CC(C)C)C(=O)O [GLFDIVKKVVGAIGSL], the MIC (Escherichia coli UB1005) is reported as ≥ 79.2 µM, the MIC [2] is reported as > 79.2 µM and the MIC (Bacillus cereus C737) is reported as ≥ 79.2 µM.

CC[C@H](C)[C@H](NC(=O)[C@H](CCCCN)NC(=O)CNC(=O)[C@H](CC(C)C)NC(=O)[C@@H](NC(=O)[C@H](CCCCN)NC(=O)[C@H](CCCNC(=N)N)NC(=O)[C@H](Cc1c[nH]c2ccccc12)NC(=O)[C@@H](N)CC(N)=O)[C@@H](C)CC)C(=O)N[C@@H](C)C(=O)N[C@@H](CCCCN)C(=O)N[C@H](C(=O)N[C@@H](C)C(=O)N[C@@H](C)C(=O)NCC(=O)N[C@@H](CC(C)C)C(=O)N[C@@H](CC(C)C)C(=O)NCC(=O)N[C@@H](CO)C(=O)N[C@@H](CCSC)C(=O)N[C@@H](CC(C)C)C(=O)N[C@@H](C)C(=O)NCC(=O)N[C@@H](Cc1ccc(O)cc1)C(=O)N[C@@H](CCC(N)=O)C(=O)N[C@H](C(=O)O)C(C)C)C(C)C [NWRKILGKIAKVAAGLLGSMLAGYQV] was tested, and the MIC [4] was 2.27 µM (≈ 6.25 µg/mL), the MIC [5] was 9.06 µM (≈ 25 µg/mL) and the MIC [6] was 2.27 µM (≈ 6.25 µg/mL). For the same compound, the MIC [7] was 2.27 µM (≈ 6.25 µg/mL), the MIC [8] was 4.35 µM (≈ 12 µg/mL) and the MIC [9] was 9.06 µM (≈ 25 µg/mL). For the same compound, the MIC [10] was 4.53 µM (≈ 12.5 µg/mL), the MIC (Salmonella typhimurium) was 4.53 µM (≈ 12.5 µg/mL) and the MIC [11] was 4.53 µM (≈ 12.5 µg/mL).

For CC[C@H](C)[C@H](NC(=O)[C@H](CCCN=C(N)N)NC(=O)[C@H](CO)NC(=O)[C@H](CC(C)C)NC(=O)[C@H](Cc1ccccc1)NC(=O)[C@H](Cc1ccccc1)NC(=O)[C@@H](N)Cc1ccccc1)C(=O)N[C@@H](Cc1ccccc1)C(N)=O [FFFLSRIF], the MIC [12] was ≥ 50 µM, the MIC (Acinetobacter baumannii) was ≥ 100 µM and the MIC [13] was ≥ 50 µM. For the same compound, the MIC (Aspergillus flavus) was ≥ 200 µM, the MIC [14] was > 200 µM and 100 µM and the MIC (Staphylococcus aureus) was 100 µM (≈ 108 µg/mL). The MIC [15] was ≥ 121 µM, the MIC (Escherichia coli ML-35p) was 30 µM (≈ 32.3 µg/mL) and the MIC [16] was 50 µM and 100 µM. For the same compound, the MIC [17] was > 100 µM, the MIC [18] was > 100 µM and the MIC (Escherichia coli) was > 100 µM. The MIC (Klebsiella pneumoniae) was > 100 µM, the MIC (Saccharomyces cerevisiae) was 12.5 µM (≈ 13.4 µg/mL) and the MIC [19] was ≥ 88 µM. The MIC [20] was ≥ 100 µM, the MIC (Listeria ivanovii) was ≥ 50 µM and the MIC (Escherichia coli JC113) was ≥ 116 µM. The MIC (Escherichia coli D21) was ≥ 100 µM, the MIC [21] was 25 µM (≈ 26.9 µg/mL) and the MIC [22] was > 100 µM. For the same compound, the MIC (Bacillus megaterium) was 3 µM (≈ 3.23 µg/mL), the MIC (Bacillus subtilis JC443) was ≥ 149 µM and the MIC [23] was > 100 µM. For the same compound, the MIC [24] was ≥ 200 µM, the MIC [25] was 25 µM (≈ 26.9 µg/mL) and the MIC [26] was ≥ 50 µM.

For CC(C)C[C@H](NC(=O)[C@H](C)NC(=O)[C@H](C)NC(=O)[C@H](CC(N)=O)NC(=O)[C@H](Cc1ccccc1)NC(=O)[C@H](CC(C)C)NC(=O)[C@@H]1CCCN1C(=O)[C@H](CCCCN)NC(=O)[C@H](CC(C)C)NC(=O)[C@@H](N)Cc1ccccc1)C(=O)N[C@@H](CCCCN)C(=O)N[C@@H](CC(C)C)C(=O)N[C@@H](CC(C)C)C(=O)N1CCC[C@H]1C(N)=O [FLKPLFNAALKLLP], the MIC [27] was 19.7 µM (≈ 31.2 µg/mL), the MIC [28] was 15.3 µM (≈ 24.2 µg/mL) and the MIC [29] was 20.9 µM (≈ 33.2 µg/mL). For the same compound, the MIC [30] was 22.2 µM (≈ 35.2 µg/mL) and the MIC [31] was 15.6 µM (≈ 24.7 µg/mL).
